Measurements: paper PMC7177638 (International Journal of Molecular Sciences, 2020)

Key:
[1] = XPS Pt4f surface reduction of Pt(IV) to Pt(II) under X-ray irradiation; format: physicochemical; conditions: after 30 min irradiation, calculated from Pt(IV) abundances
From the text: The Pt(IV) complexes were also characterized by X-ray photoelectron spectroscopy (XPS) in order to obtain information on the surface chemical composition and on the platinum speciation. Despite the surface sensitivity of the technique (topmost 5–8 nm), the analysis on homogeneous samples provides useful information on the chemical environment of all detected elements. […] Two doublets were found: one is attributed to Pt(II) (BE Pt4f7/2 = 72.9 ± 0.2 eV and BE Pt4f5/2 = 76.2 ± 0.2 eV), while the second doublet is attributed to Pt(IV) (BE Pt4f7/2 = 75.6 ± 0.2 eV and BE Pt4f5/2 = 79.0 ± 0.2 eV).
The Pt(IV)/Pt(II) relative abundance varies from case to case; moreover, if the X-ray degradation is monitored after 30 min exposure to the X-ray beam, an increase of the Pt(II) relative abundance is observed (Figure 8b).
X-ray Photoelectron Spectroscopy (XPS) analyses were run on a PHI 5000 Versa Probe II Scanning XPS Microprobe spectrometer (ULVAC PHI Inc., Kanagawa, Japan). Measurements were carried out using a monochromatic Al Kα source (X-ray spot 200 μm) at a power of 50.3 W. Wide scan and detailed spectra (Pt4f, C1s, Cl2p, N1s, O1s) were acquired in Constant Analyzer Energy (CAE) mode with a pass energy of 117.40 and 29.35 eV, respectively. An electron gun was used for charge compensation (1.0 V, 20.0 μA). Due to the X-ray sensitivity of Pt(IV) complexes, the Pt4f spectral region was acquired first. X-ray degradation kinetics experiments were performed analyzing the same sample area after 30 min. Data processing was performed by using the MultiPak software v. 9.8.0.19.

[2] = Stability in solution followed by 1H-NMR (solvent-assisted photoreduction); format: physicochemical; conditions: DMSO-d6, room temperature, not shielded from light
From the text: (5.4–6.5 ppm). Most likely, compound 4 underwent a solvent-assisted reduction process favored by light, as previously observed for similar compounds such as cis,trans,cis-[PtCl2(OH)2(cis-1,4-DACH)] [19, 20]. […] This reduction/solvation could also be observed in other solvents, such as D2O and CD3OD.
As for compound 4, the reduction is probably fostered by the presence of axial chlorido ligand(s).
The ^13C NMR signals are influenced by the asymmetry of the complex with respect to the equatorial plane with two peaks at 125.4 and 125.2 ppm for the vinylic carbons, two signals at 60.2 and 59.3 ppm for the methynic carbons, and two signals at 33.1 and 32.6 ppm for the methylenic carbons (Figure S10).

[3] = system: panel of human cancer cell lines (PSN-1, HCT-15, LoVo, A431, 2008); assay: MTT cytotoxicity, average over the panel of human cancer cell lines; format: cell-based; conditions: 72 h
Method: The in vitro cytotoxic activities of compounds 1–6 were assayed on a panel of human cancer cell lines containing examples of pancreatic (PSN-1), colon (HCT-15 and LoVo), cervical (A431), and ovarian (2008) cancers. Cisplatin and oxaliplatin were used as reference compounds and were tested under the same experimental conditions.
[17, 30] Thus, the pharmacological activity decreases in the order 3 >> 1 ≈ 2 ≈ 4 > 5 > 6.
The growth inhibitory effect toward the tumor cell lines was evaluated by the MTT test. Briefly, 3-8·10^3 cells/well, depending upon the growth characteristics of the cell lines, were seeded in 96-well microplates in growth medium (100 µL) and then incubated at 37 °C in a 5% carbon dioxide atmosphere. After 24 h, the medium was removed and replaced with a fresh one containing the compound to be tested at the appropriate concentration. Triplicate cultures were established for each treatment. After 72 h, each well was treated with 10 µL of a 5 mg·mL^−1 MTT (3-(4,5-dimethylthiazol-2-yl)-2,5-diphenyltetrazolium bromide) saline solution and, after 5 h of incubation, 100 µL of a sodium dodecylsulfate (SDS) solution in HCl 0.01 M were added. Following an overnight incubation, the inhibition of cell growth induced by the tested complexes was evaluated by measuring the absorbance of each well at 570 nm using a Bio-Rad 680 microplate reader (Bio-Rad Laboratories S.r.l., Segrate (MI), Italy).

Compound	% of Reduction [1]	stability in solution (reduction to Pt(II) / solvation) [2]	times more cytotoxic than the other Pt(IV) compounds of the series [3]	times more cytotoxic than the other Pt(IV) compounds of the series ([3]; listed as bis-benzoate derivative)	IC50 ([3]; mean over the cell line panel)
CC(=O)[O][Pt]1([Cl])[O]C(=O)C(=O)[O]1.NC1CC=CCC1N (racemic) [Complex 5, cis,trans,cis-[Pt(OXA)(AcO)Cl(DACHEX)]]	67%	shows a photo-assisted reduction accompanied by solvation	–	–	–
NC1CC=CCC1N.O=C1[O][Pt]([OH])([Cl])[O]C1=O (racemic) [Complex 6, cis,trans,cis-[Pt(OXA)(OH)Cl(DACHEX)]]	64%	underwent reduction followed by solvation	–	–	–
NC1CC=CCC1N.O=C([O-])C(=O)[O-].O=C([O-])c1ccccc1.O=C([O-])c1ccccc1.[Pt+4] (mixture of isomers) [Complex 3, cis,trans,cis-[Pt(OXA)(BzO)2(DACHEX)]]	66%	–	about five times more active	5–8	260 nM
